Assay results: paper PMC10746543, “Design principles for cyclin K molecular glue degraders” (Nature Chemical Biology, 2023)
“And” between values parts separate entries of the source, which are not always exact repeats. Equal entries are not always repeated. Where two headings read alike, the source gives them in different places.

What was measured:
[1] = system: HEK293T cells; test: Drug sensitivity assay (CellTiter-Glo viability) with or without MLN4924 pretreatment; format: cell-based, human; details: Supplementary Table 2; for EC50: Homo sapiens, HEK-293T, HEK293T viability, 72 h, compound alone, read-out: Cellular assays EC50; for Toxicity rescue: MLN4924-mediated cytotoxicity rescue, 10 µM used where n.d.
Outline: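 Cas9-expressing HEK293T cells receive either vehicle or 100 nM MLN4924, then compounds 2 h afterwards. After three days, luminescence-based viability is measured and calculated relative to DMSO.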

[2] = target: T1, CDK12–cyclin K and DDB1 (Homo sapiens, UniProt Q16531+Q9NYV4, K965R); test: TR-FRET ternary complex formation assay (compound titration); format: binding; details: for TR-FRET signal at compound concentration: replicate titrations
T1 construct: His6–CDK12 (a.a. 713–1,052); full-length or beta-propeller B domain deletion (ΔBPB: a.a. 396–705 deleted) constructs of His6–DDB1ΔBPB, StrepII–Avi–DDB1, or His6–Spy–DDB1; made in house; host or cells: Trichoplusia ni High Five insect cells (baculovirus)
Outline: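 A time delay of 70 μs preceded acquisition, limiting background fluorescence; the ratio of emission at 520 versus 490 nm gave the TR-FRET value.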

[3] = system: cyclin K–eGFP degradation reporter; test: Cyclin K reporter stability analysis (dual-color cyclin K–eGFP reporter); format: cell-based, human; details: Supplementary Table 2; HEK293T cycK-eGFP reporter, 5 h; read-out: Cellular assays DC50
Outline: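 First, reporter-bearing HEK293T–Cas9 cells are plated at 1 × 10^6 ml^−1. Next, drug or vehicle is added for 5 h. Finally, geometric-mean eGFP and mCherry signals of round, mCherry-positive cells are measured cytometrically, and their ratio is referenced to the DMSO average.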

[4] = compound concentration 79.2001 nM
[5] = compound concentration 158.4 nM
[6] = compound concentration 309.6 nM
[7] = compound concentration 626.401 nM
[8] = compound concentration 1252.8 nM
[9] = compound concentration 9936.01 nM
[10] = compound concentration 20016 nM
[11] = in vitro complex formation, 50 nM CDK12–cyclin K, 100 nM DDB1, text and figures, read-out: TR-FRET EC50

T1 sequence (Q9NYV4 713-1052 K965R): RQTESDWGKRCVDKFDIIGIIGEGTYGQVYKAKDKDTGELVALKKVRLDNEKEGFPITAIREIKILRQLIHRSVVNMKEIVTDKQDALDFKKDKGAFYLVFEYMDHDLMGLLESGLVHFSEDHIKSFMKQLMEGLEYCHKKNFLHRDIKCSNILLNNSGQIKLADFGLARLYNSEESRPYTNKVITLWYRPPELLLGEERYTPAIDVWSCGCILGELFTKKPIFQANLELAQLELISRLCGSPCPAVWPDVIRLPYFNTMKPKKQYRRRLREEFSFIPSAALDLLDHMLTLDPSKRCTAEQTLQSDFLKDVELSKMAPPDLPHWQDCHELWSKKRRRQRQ
T1 sequence (O75909 1-267 partner): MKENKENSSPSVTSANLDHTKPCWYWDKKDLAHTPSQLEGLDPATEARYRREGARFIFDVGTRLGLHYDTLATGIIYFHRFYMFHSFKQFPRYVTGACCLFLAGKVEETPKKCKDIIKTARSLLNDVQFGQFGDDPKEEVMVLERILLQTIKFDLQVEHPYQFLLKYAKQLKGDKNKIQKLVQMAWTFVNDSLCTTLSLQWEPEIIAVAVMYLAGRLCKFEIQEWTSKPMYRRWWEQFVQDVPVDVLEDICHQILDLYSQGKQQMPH
T1 sequence (Q16531 whole entry): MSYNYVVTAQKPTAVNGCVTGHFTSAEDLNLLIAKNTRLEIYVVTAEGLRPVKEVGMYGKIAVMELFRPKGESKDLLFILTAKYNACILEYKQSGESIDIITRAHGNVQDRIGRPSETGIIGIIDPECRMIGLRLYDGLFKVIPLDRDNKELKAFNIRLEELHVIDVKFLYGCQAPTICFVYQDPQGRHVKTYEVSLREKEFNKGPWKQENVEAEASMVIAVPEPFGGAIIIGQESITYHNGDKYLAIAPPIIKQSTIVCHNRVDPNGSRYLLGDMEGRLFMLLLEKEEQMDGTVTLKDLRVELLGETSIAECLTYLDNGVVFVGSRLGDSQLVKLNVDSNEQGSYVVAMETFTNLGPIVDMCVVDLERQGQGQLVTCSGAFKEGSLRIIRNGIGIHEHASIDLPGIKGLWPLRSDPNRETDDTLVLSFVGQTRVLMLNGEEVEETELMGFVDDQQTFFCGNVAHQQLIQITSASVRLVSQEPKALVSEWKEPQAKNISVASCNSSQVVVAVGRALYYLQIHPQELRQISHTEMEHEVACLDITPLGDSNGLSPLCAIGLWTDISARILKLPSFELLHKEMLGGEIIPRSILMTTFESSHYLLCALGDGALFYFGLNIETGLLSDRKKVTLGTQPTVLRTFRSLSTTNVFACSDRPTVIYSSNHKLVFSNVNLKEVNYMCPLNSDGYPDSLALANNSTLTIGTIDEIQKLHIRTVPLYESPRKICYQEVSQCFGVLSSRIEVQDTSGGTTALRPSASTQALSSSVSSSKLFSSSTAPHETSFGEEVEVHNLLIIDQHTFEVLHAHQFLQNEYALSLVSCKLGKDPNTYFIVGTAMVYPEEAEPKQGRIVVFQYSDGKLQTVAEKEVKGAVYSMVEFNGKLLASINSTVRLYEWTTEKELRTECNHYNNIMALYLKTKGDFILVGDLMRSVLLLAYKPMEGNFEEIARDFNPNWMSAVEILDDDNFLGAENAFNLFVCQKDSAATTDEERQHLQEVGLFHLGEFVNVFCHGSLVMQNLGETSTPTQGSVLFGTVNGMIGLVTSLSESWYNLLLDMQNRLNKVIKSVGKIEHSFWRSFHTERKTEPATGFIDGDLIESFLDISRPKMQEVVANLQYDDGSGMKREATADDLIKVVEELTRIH

Row | Compound | EC50 [1] [µM] | Toxicity rescue [1] [%] | EC50 [2, 11] [nM] | DC50 [3] [µM] | TR-FRET signal, individual replicate ([2]; compound concentration 4.68 nM) | TR-FRET signal, individual replicate ([2]; compound concentration 21.6 nM) | TR-FRET signal, individual replicate ([2]; compound concentration 36 nM) | TR-FRET signal, individual replicate [2, 4] | TR-FRET signal, individual replicate [2, 5] | TR-FRET signal, individual replicate [2, 6] | TR-FRET signal, individual replicate [2, 7] | TR-FRET signal, individual replicate [2, 8] | TR-FRET signal, individual replicate ([2]; compound concentration 2448 nM) | TR-FRET signal, individual replicate [2, 9] | TR-FRET signal, individual replicate [2, 10] | also measured
1 | CC[C@H](CO)Nc1nc(NCc2ccc3cc(O)ccc3c2)c2ncn(C(C)C)c2n1 [DS14] | > 10 | 0 | 2360 ± 777 | > 10 |  |  |  |  |  |  |  |  |  |  |  | TR-FRET signal ([2]; compound concentration 4.68 nM): 0.1364 and 0.1548; TR-FRET signal ([2]; compound concentration 21.6 nM): 0.1403 and 0.1585; TR-FRET signal ([2]; compound concentration 36 nM): 0.1464 and 0.1703; TR-FRET signal [2, 4]: 0.164 and 0.1861; TR-FRET signal [2, 5]: 0.1899 and 0.214; TR-FRET signal [2, 6]: 0.2284 and 0.2573; TR-FRET signal [2, 7]: 0.2863 and 0.3257; TR-FRET signal [2, 8]: 0.3495 and 0.4048; TR-FRET signal ([2]; compound concentration 2448 nM): 0.4136 and 0.4783; TR-FRET signal [2, 9]: 0.5447 and 0.6287; TR-FRET signal [2, 10]: 0.6134 and 0.6953
2 | CC[C@H](CO)Nc1nc(NCCCCCc2cccc3ccccc23)c2ncn(C(C)C)c2n1 [DS15] | > 10 | 0 | 182 | > 10 | 0.1682 and 0.1874 | 0.2977 and 0.3197 | 0.5215 and 0.541 | 0.8673 and 0.9745 | 1.23 and 1.324 | 1.677 and 1.781 | 2.096 and 2.217 | 2.231 and 2.525 | 2.525 and 2.68 | 2.633 and 2.833 | 2.343 and 2.482 | TR-FRET signal at compound concentration ([2]; compound concentration 4.68 nM): 0.1682 and 0.1874; TR-FRET signal at compound concentration ([2]; compound concentration 21.6 nM): 0.2977 and 0.3197; TR-FRET signal at compound concentration ([2]; compound concentration 36 nM): 0.5215 and 0.541; TR-FRET signal at compound concentration [2, 4]: 0.8673 and 0.9745; TR-FRET signal at compound concentration [2, 5]: 1.23 and 1.324; TR-FRET signal at compound concentration [2, 6]: 1.677 and 1.781; TR-FRET signal at compound concentration [2, 7]: 2.096 and 2.217; TR-FRET signal at compound concentration [2, 8]: 2.231 and 2.525; TR-FRET signal at compound concentration ([2]; compound concentration 2448 nM): 2.525 and 2.68; TR-FRET signal at compound concentration [2, 9]: 2.633 and 2.833; TR-FRET signal at compound concentration [2, 10]: 2.343 and 2.482; EC50 ([2]; sheet MOESM7, read-out: log TR-FRET EC50 (converted)): 182 nM
3 | CC[C@H](CO)Nc1nc(NC)c2ncn(C(C)C)c2n1 [DS23] | > 10 | 0 |  | > 10 | 0.1301 and 0.1411 | 0.1343 and 0.1464 | 0.1332 and 0.1524 | 0.1391 and 0.1534 | 0.1406 and 0.1374 | 0.0615 and 0.162 | 0.1683 and 0.1829 | 0.1869 and 0.2017 | 0.194 and 0.2082 | 0.2263 and 0.2491 | 0.2226 and 0.3132 | DDB1–CDK12 complex formation, result in words ([2]; in vitro TR-FRET): did not appreciably promote the binding
